ChEMBL document CHEMBL5325475, “Discovery of a Potent and Selective Tyrosine Kinase 2 Inhibitor: TAK-279” (J Med Chem, 2023)

How the values were obtained:
[1] = in vivo; conditions: C57Bl/6, mouse, po, 10 mg/kg
[2] = in vivo; conditions: Sprague-Dawley, rat, po, 10 mg/kg
[3] = in vivo; conditions: beagle, dog, po, 10 mg/kg
[4] = in vivo; conditions: cynomolgus monkey, po, 10 mg/kg
[5] = in vivo; conditions: C57Bl/6, mouse, po, 10 mg/kg; remark: listed apart in the source
[6] = in vivo; conditions: Sprague-Dawley, rat, po, 10 mg/kg; remark: listed apart in the source
[7] = in vivo; conditions: beagle, dog, po, 10 mg/kg; remark: listed apart in the source
[8] = in vivo; conditions: cynomolgus monkey, po, 10 mg/kg; remark: listed apart in the source

Structure (SMILES) | half-life [1] [h] | half-life [2] [h] | half-life [3] [h] | half-life [4] [h] | bioavailability [5] [%] | bioavailability [6] [%] | bioavailability [7] [%] | bioavailability [8] [%]
CNc1cc(Nc2cccn(-c3ncccc3F)c2=O)nc2c(C(=O)N[C@@H]3C[C@@H]3F)cnn12 | 2.2 | 2.7 | 3 | 1.4 | 52 | 59 | 51 | 97
CNc1cc(Nc2cccn(-c3ncccc3F)c2=O)nc2c(C(=O)N[C@@H]3CC[C@H]3OC)cnn12 | 2.1 | 5.9 | – | – | – | 30 | – | –
CNc1cc(Nc2cccn(-c3ccccn3)c2=O)nc2c(C(=O)N[C@H]3CC[C@@H]3OC)cnn12 (single isomer, unassigned) | 2 | 1.2 | 5.3 | 3.8 | 70 | 37 | 47 | 47
